Consider 1 compound from US9593084B2 (Parion Sciences, Inc., priority 2012, dated 2017).

The target of series [1] is T1, epithelial sodium channel (Canis lupus familiaris, UniProt A0A8I3MKE6+A0A8I3Q679+Q95165).
T1 construct: endogenous in cells; host or cells: primary canine bronchial epithelial cells cultured at air-liquid interface
T1 sequence (A0A8I3Q679 1-649): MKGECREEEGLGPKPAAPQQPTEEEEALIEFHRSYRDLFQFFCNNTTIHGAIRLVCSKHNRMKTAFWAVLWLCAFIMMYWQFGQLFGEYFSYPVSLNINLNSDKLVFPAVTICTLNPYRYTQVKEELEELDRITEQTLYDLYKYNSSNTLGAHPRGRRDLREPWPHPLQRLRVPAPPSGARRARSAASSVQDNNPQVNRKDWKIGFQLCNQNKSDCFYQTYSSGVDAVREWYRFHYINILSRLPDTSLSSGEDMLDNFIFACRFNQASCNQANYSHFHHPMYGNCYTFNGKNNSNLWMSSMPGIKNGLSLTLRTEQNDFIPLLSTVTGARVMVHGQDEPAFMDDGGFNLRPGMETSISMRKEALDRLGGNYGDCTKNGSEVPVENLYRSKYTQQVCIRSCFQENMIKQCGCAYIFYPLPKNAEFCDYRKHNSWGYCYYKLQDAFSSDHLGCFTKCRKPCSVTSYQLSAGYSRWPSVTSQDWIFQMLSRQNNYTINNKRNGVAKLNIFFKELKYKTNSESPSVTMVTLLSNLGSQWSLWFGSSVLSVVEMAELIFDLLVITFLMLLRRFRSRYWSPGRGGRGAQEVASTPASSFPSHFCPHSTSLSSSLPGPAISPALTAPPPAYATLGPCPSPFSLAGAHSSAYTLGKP
T1 sequence (Q95165 1-641): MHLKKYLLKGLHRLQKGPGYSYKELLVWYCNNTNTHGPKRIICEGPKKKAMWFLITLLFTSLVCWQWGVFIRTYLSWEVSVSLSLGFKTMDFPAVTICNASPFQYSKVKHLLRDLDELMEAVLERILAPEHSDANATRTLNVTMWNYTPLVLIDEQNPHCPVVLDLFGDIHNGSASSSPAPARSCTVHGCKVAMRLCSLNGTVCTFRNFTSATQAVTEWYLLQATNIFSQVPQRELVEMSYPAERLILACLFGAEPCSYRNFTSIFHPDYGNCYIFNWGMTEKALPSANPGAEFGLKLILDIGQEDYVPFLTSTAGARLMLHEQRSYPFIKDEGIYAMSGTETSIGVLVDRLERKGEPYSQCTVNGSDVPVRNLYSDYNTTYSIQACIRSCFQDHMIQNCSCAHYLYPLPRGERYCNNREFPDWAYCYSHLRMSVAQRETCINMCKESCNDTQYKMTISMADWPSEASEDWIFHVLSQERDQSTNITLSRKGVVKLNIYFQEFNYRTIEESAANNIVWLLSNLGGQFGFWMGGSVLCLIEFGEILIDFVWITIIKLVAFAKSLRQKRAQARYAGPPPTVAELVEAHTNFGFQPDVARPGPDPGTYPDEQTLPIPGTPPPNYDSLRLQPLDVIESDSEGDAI
T1 sequence (A0A8I3MKE6 1-646): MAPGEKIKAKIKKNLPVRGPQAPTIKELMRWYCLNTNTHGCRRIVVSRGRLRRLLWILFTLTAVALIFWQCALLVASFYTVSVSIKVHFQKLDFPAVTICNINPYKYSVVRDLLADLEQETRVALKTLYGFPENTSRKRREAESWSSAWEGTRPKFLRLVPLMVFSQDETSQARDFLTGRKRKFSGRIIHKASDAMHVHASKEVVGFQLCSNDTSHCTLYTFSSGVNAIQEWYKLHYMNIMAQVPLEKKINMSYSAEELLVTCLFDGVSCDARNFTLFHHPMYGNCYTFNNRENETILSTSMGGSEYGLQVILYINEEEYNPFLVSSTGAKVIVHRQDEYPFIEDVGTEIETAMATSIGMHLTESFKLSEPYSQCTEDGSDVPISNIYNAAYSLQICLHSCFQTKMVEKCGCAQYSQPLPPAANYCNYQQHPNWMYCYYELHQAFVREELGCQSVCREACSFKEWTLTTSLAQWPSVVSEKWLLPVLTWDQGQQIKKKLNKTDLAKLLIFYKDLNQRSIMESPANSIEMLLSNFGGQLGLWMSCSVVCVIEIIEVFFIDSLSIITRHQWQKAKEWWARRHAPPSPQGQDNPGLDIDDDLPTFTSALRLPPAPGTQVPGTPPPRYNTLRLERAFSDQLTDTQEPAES
Briefly: Inhibition of short-circuit current (ISC) in airway epithelial monolayers in Ussing chambers. It is filed as cell-based, canine. To be noted: canine bronchial epithelial cells, short-circuit current; read-out: Potency of Sodium Channel Blockade IC50. The protocol:
One assay used to assess mechanism of action and/or potency of the compounds of the present invention involves the determination of lumenal drug inhibition of airway epithelial sodium currents measured under short circuit current (ISC) using airway epithelial monolayers mounted in Using chambers. Cells obtained from freshly excised human, dog, sheep or rodent airways are seeded onto porous 0.4 micron Snapwelff Inserts (CoStar), cultured at air-liquid interface (ALI) conditions in hormonally defined media, and assayed for sodium transport activity (ISC) while bathed in Krebs Bicarbonate Ringer (KBR) in Using chambers. All test drug additions are to the lumenal bath with half-log dose addition protocols (from 1×10^−11 M to 3×10^−5 M), and the cumulative change in ISC (inhibition) recorded. All drugs are prepared in dimethyl sulfoxide as stock solutions at a concentration of 1×10^−2 M and stored at −20° C. […] After the maximal concentration ([…]) is administered, the lumenal bath is exchanged three times with fresh drug-free KBR solution, and the resultant ISC measured after each wash for approximately 5 minutes in duration. Reversibility is defined as the percent return to the baseline value for sodium current after the third wash. All data from the voltage clamps are collected via a computer interface and analyzed off-line.
Dose-effect relationships for all compounds are considered and analyzed by the Prism 3.0 program.

Series [2] concerns human bronchial epithelial (HBE) cells. Briefly: Airway surface liquid drug clearance and metabolism by human airway epithelium. It is filed as in vitro ADME. The procedure:
The disappearance of 33 from the apical surface and airway epithelial metabolism were assessed in human bronchial epithelial (HBE) cells (Table 3). In these experiments 25 μL of a 25 μM solution of ENaC blocker was added to the apical surface of HBE cells grown at an air/liquid interface, and the drug and metabolite concentration in the apical and basolateral compartment was measured over 2 h by UPLC.
Therefore, the compounds of formula (I) have a longer half-life on mucosal surfaces compared to these know compounds as evidenced by the data shown in Table G. The disappearance of Compound 33 from the apical surface and airway epithelial metabolism were assessed in HBE and compared to Comparative Example 1 (Table H). In these experiments 25 μL of a 25 μM solution of ENaC blocker was added to the apical surface of HBE cells grown at an air/liquid interface, and the drug concentration in the apical and basolateral compartment was measured over 2 h by UPLC.

The mark [3] stands for this setting: HBE cells at air/liquid interface, 25 μL of 25 μM apical, mean ± SD.

As usually defined, the IC50 is the concentration that inhibits the measured activity by half.

Take `N=C(NCCCCc1ccc(C[C@H](N)C(=O)Nc2ccc(CCCN(C[C@H](O)[C@@H](O)[C@H](O)[C@H](O)CO)C[C@H](O)[C@@H](O)[C@H](O)[C@H](O)CO)cc2)c2ccccc12)NC(=O)c1nc(Cl)c(N)nc1N` [Compound 33, 3,5-diamino-N—(N-(4-(4-((S)-2-amino-3-(4-(3-(bis((2S,3R,4R,5R)-2,3,4,5,6-pentahydroxyhexyl)amino)propyl)phenylamino)-3-oxopropyl)naphthalen-1-yl)butyl)carbamimidoyl)-6-chloropyrazine-2-carboxamide]: the IC50 in series [1] was 21.8 nM. Further, in series [2] (setting [3]), the “% of Apical Mass as Metabolites (2 h)” value amounted to 4% and the “% on Basolateral Side as Metabolites (2 h)” value is 32%. Besides, in series [2] (HBE cells, apical surface, 37° C.), the “fate on the apical side after 2 h incubation” value is listed as “mostly unmetabolized on the apical side”.
